Measured values reported in paper PMC10835127, “Viruses traverse the human proteome through peptide interfaces that can be biomimetically leveraged for drug discovery” (Proceedings of the National Academy of Sciences of the …, 2024).
Like-named read-outs stand apart in the source and are kept apart here.

How the values were obtained:
influenza A H1N1 virus = conditions: 48 hr post-treatment, A549
EBV = conditions: normalized mean of EBV replication readout
HCV replicon = format: cell-based; conditions: normalized mean of HCV replicon readout
HIV1 strain NL4-3 = format: cell-based; conditions: normalized mean of HIV1 replication readout
[1] = tested on: F. novicida (strain U112); format: cell-based

Substance | Neuraminidase activity normalized to vehicle (influenza A H1N1 virus; 200 µM peptide) | Neuraminidase activity normalized to vehicle (influenza A H1N1 virus; 0,823 µM peptide) | Neuraminidase activity normalized to vehicle (influenza A H1N1 virus; 22,2 µM peptide) | Neuraminidase activity normalized to vehicle (influenza A H1N1 virus; 2,4691 µM peptide) | Neuraminidase activity normalized to vehicle (influenza A H1N1 virus; 7,4074 µM peptide) | Neuraminidase activity normalized to vehicle (influenza A H1N1 virus; 66,6667 µM peptide) | EBV Norm MEAN (EBV) | HCV Norm MEAN (HCV replicon) | HIV1 Norm MEAN (HIV1 strain NL4-3) | Francisella novicida Norm AUC [1] | EBV Norm MEAN (EBV; peptide screen) | HCV Norm MEAN (HCV replicon; peptide screen) | HIV1 Norm MEAN (HIV1 strain NL4-3; peptide screen)
EPLDLPPIIQ [CPEP45] | 0,7336 | 0,9966 | 0,8381 | 0,9443 | 0,9188 | 0,7574 | 0.6832 | 1.078 | 0.3392 | 1.0611 |  |  | 
EVLADNLPPP [CPEP90] | 0,7518 | 0,9901 | 0,7822 | 0,9469 | 0,8328 | 0,7316 | 1.561 | 1.163 | 0.8397 | 1.209 |  |  | 
FPESLIL [CPEP76] | 0,7678 | 0,7594 | 0,787 | 0,7722 | 0,7943 | 0,7797 | 1.102 | 0.1881 | 0.9579 | 0.9207 |  |  | 
FVKSNWGLF [CPEP101] | 0,7463 | 1,0136 | 0,9003 | 0,9061 | 0,9057 | 0,8948 | 1.466 | 0.5497 | 0.9706 | 1.6479 |  |  | 
GARASVLS [CPEP108] | 0,7289 | 0,7112 | 0,9027 | 0,8479 | 0,9625 | 0,8429 | 0.7452 | 0.178 | 0.3412 | 1.458 |  |  | 
GGKWSKLS [CPEP134] | 0,426 | 0,9416 | 0,8116 | 0,8887 | 0,9196 | 0,7036 | 0.3842 | 0.2388 | 1.139 | 1.142 |  |  | 
GGLEPLSEKHFRETEV [CPEP112] | 1,0677 | 1,0673 | 1,1545 | 1,0388 | 1,1047 | 1,0264 |  |  |  | 1.082 | 0.8103 | 0.3447 | 0.2121
GHRMAWDMMMNWSP [CPEP107] | 0,108 | 0,7424 | 0,9099 | 0,9047 | 0,8224 | 0,2891 |  |  |  | 0.9779 | 0.9961 | 0.9584 | 1.4249
GPSDSGAGRAAEDRKCL [CPEP137] | 1,0777 | 1,0904 | 1,189 | 0,9326 | 1,1347 | 1,0155 |  |  |  | 1.181 | 1.2267 | 0.6634 | 0.7725
GRPPLPPKQK [CPEP41] | 0,8561 | 1,0727 | 0,912 | 0,9209 | 0,9892 | 0,8347 | 0.7591 | 0.9259 | 0.6258 | 0.9976 |  |  | 
